Experimental data published in patent publication US20060134779A1, “Modulation of cell intrinsic strain to control cell modulus, matrix synthesis, secretion, organization, material properties and remodeling of tissue engineered constructs” (priority 2004, published 2006).
“Also recorded” adds a separate entry of the source.

How the values were obtained:
elastin = assay: Quantitative RT-PCR gene expression in BATs: elastin; format: cell-based, human
Method: (§1) Primary human tendon internal fibroblasts (HTIFs) were isolated from discarded human tendon tissue as described previously (Banes et al., J. Ortho Res., 6, 73-82, 1988). HTIFs from passage 2 to 4 were used in this study. BATs™ were fabricated at a cell density of 2 million cells/ml collagen gel suspension (Vitrogen). Cells were incubated at 37° C. for 24 h before addition of 100 pM IL-1β and inhibitors. BAT™ images were recorded with a scanner and automated imaging software, ScanFlex™ (Flexcell International Corp.). Medium was refreshed every 24 h. On day 5, BATs™ were collected, total RNA extracted with an RNeasy mini kit (QIAGen), cDNA synthesized with SuperScriptII (Invitrogen) and quantitative PCR carried out using a quantitative PCR kit from Ambion. The PCR products were separated on 2% agarose gels and the bands were quantitated in Photoshop. The elasticity of BATs™ was tested on day 5. BATs™ were subjected to a maximum stretch (20% elongation, 1 Hz for 1 h) and the BAT™ images were recorded for 24 h after stretch.

[1] = system: human tendon internal fibroblast (HTIF)-populated bioartificial tendons (BATs); assay: Contraction of HTIF-populated BATs (scanner imaging); format: cell-based; details: 100 pM IL-1β, 24 h post addition
Method: as §1

[2] = system: human tendon internal fibroblast (HTIF)-populated bioartificial tendons (BATs); assay: Elasticity of BATs: length recovery after maximum stretch; format: cell-based; details: 100 pM IL-1β
From the text: In order to find a better therapeutic method for tendon/ligament repair and/or replacement, several in vitro models for engineered tendon have been developed recently (Awad et al., J. Biomed. Mater Res., 51(2), 233-240, 2000). One of them is a BioArtificial Tendon (BAT™) model system utilizing tenocyte-populated molded collagen gels (Awad et al., J. Biomed. Mater Res., 51(2), 233-240, 2000). This 3D BAT™ system allows the testing of tenocyte responses to drugs, cytokines and mechanical loading but is too weak to replace conventional grafts materials. In an attempt to modulate the material properties of the cell-gel composite, the influence of IL-1β on the elasticity of human tendon internal fibroblast (HTIF)-populated bioartificial tendons (BATs™) was investigated. IL-1β has been reported to increase the expression of matrix metalloproteinases (MMPs) and elastin. It was hypothesized that IL-1 might increase the elasticity of BATs™ by up-regulating the expression of elastin and down-regulating matrix protein (Collagen type I) expression. Gene expression was quantified with quantitative RT-PCR. The elasticity of BATs™ was determined by length recovery after stretch. The influence of IL-1β on the actin cytoskeleton and integrin attachment to matrix in BATs™ also was tested +/−cytochalasin D or GRGDTP, respectively.
as §1, with “BATs™ were fabricated at a cell density of 2 million cells/ml collagen gel suspension (Vitrogen). Cells were incubated at 37° C. for 24 h before addition of 100 pM IL-1β and inhibitors.” left out, “Medium was refreshed every 24 h.” left out, “The elasticity of BATs™ was tested on day 5.” left out

MMPs 1, 2, 3 = assay: Quantitative RT-PCR gene expression in BATs: MMPs; format: cell-based, human; details: 100 pM IL-1β, day 5
Method: as §1

Collagen type I = assay: Quantitative RT-PCR gene expression in BATs: Collagen type I; format: cell-based, human; details: 100 pM IL-1β, day 5
Method: as §1

[3] = system: human tendon internal fibroblasts (HTIFs); assay: Young's modulus of HTIFs by micropipette aspiration; format: cell-based; details: young and adult patients (FIG. 13)
Method: (§2) Primary HTIFs were isolated after surgery from discarded human tendon tissue as described previously (Banes et al., J. Ortho Res., 6, 73-82, 1988). HTIFs from passage 2 to 4 were used in this study. HTIFs were allowed to attach and spread for 24 h before addition of 100 pM IL-1β. Medium was refreshed every 24 h. On day 5, cells were collected for cell modulus measurement and gene expression analysis. Young's modulus of HTIFs was measured by aspirating a cell into the bore of a calibrated micropipette with a calibrated vacuum source. The cell-aspiration process was videotaped for subsequent data analysis to calculate the pipette bore size, the steady state pressure required to aspirate a segment of a cell into the pipette bore and the time constant for aspiration. Cytoskeleton change was monitored by rhodamine-phalloidin staining. The expression levels of β-actin was determined by quantitative RT-PCR. Total RNA was extracted with an RNeasy mini kit (QIAGen), cDNA was synthesized with SuperScriptII (Invitrogen) and quantitative PCR was carried out using 18S rRNA as an internal control (Ambion). The PCR products were separated on 2% agarose gels and pixel intensity of the bands was quantitated in Photoshop.

β-actin [4] = assay: β-actin expression by quantitative RT-PCR in HTIFs; format: cell-based, human; details: for reduction of the message of β-actin: 24 h post addition
Method: as §2, with “On day 5, cells were collected for cell modulus measurement and gene expression analysis.” left out

β-actin [5] = assay: Cytoskeleton change by rhodamine-phalloidin staining in HTIFs; format: cell-based, human; details: 100 pM IL-1β
Method: as §2

[6] = system: human tendon internal fibroblast (HTIF) populated bioartificial tendons (BATs); assay: Material properties (modulus) of HTIF-populated BATs; format: cell-based
cell modulus = details: cited from earlier work
gel matrix = assay: Gel matrix contraction in a culture system; format: cell-based
[7] = 20% elongation, 1 Hz for 1 h, day 5

GRGDTP
elastin mRNA level (elastin; 100 μg/ml GRGDTP alone): did not affect
stimulation of elastin mRNA by IL-1 (elastin; 100 μg/ml GRGDTP with 100 pM IL-1β): reduced

interleukin-1beta [IL-1β]
contraction of BATs [1]: reduced
elasticity of BATs ([2]; tested on day 5): increased
survival of maximum stretch [2, 7]: survived
time for elongated BATs to recover to original length post stretch [2, 7]: 8 h
expression of MMPs 1, 2, 3 (MMPs 1, 2, 3): up-regulated; also recorded: up-regulation
expression of elastin (elastin; 100 pM IL-1β, day 5): up-regulated
expression of Collagen type I (Collagen type I): down-regulated
cell modulus of monolayer HTIFs [3]: reduced
reduction of the message of β-actin (β-actin [4]; 100 pM IL-1β, 2D cultures): more than 50%
reduction of the message of β-actin (β-actin [4]; 100 pM IL-1β, 3D cultures): more than 50%
message level of β-actin (β-actin [4]; 100 pM IL-1β, day 3, 3D cultures): returned to normal
expression of β-actin (β-actin [4]; 2D cultures, days 1 and 3 (FIG. 14A)): reduced
cells with cytoskeletal structure disrupted (β-actin [5]; 2D cultures): about 20%
protein level of β-actin (β-actin [5]; 2D cultures, day 3): further reduced
protein level of β-actin (β-actin [5]; 2D cultures, day 5): mostly recovered
increase of intercellular space at the perpendicular direction of BATs (β-actin [5]; 3D BATs, days 1 and 3): more than 100%
fluorescence intensity of rhodamine-phalloidin staining compared to control (β-actin [5]; 3D bioartificial tendons, day 5): much lower
protein level of β-actin (β-actin [5]; rhodamine-phalloidin staining): down regulated
modulus of BATs [6]: reduced

C=C1[C@@H](C)[C@H]2[C@H](Cc3ccccc3)NC(=O)[C@]23[C@H](OC(C)=O)/C=C/[C@@](C)(O)C(=O)[C@@H](C)C/C=C/[C@H]3[C@@H]1O [cytochalasin D]
decrease of cell modulus (cell modulus): up to three fold

Nc1ncnc2c1ncn2[C@@H]1O[C@H](COP(=O)(O)OP(=O)(O)OP(=O)(O)O)[C@@H](O)[C@H]1O [ATP, adenosine triphosphate]
gel matrix contraction (gel matrix): retard
